Experiments:
[1] = molecular target: T1, myeloperoxidase (MPO) (Homo sapiens, UniProt P05164); assay: MPO peroxidation assay (Amplex Red assay); assay type: biochemical; conditions: MPO peroxidation, potency range class; read-out: Amplex Red IC50
T1 sequence (P05164 49-745): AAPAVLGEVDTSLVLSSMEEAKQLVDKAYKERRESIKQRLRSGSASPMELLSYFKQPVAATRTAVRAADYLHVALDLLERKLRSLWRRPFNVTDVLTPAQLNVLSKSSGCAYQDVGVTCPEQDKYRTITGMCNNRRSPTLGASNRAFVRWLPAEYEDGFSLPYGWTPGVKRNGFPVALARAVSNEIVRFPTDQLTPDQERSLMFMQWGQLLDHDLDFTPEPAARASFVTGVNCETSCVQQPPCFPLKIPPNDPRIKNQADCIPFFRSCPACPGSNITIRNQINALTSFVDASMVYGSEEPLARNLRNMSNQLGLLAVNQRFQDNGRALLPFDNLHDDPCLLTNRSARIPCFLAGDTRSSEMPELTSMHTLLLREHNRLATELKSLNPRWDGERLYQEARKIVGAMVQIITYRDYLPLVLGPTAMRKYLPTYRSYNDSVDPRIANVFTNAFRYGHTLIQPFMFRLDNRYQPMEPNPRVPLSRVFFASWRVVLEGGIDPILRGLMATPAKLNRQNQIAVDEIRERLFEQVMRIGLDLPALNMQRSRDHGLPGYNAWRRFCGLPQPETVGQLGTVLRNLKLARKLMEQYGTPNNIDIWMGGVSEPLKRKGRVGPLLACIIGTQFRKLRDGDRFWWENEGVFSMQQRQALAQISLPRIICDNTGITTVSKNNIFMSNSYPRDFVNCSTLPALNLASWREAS
Outline: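 MPO (200 pM) with 40 nM H2O2 was preincubated 10 min at room temperature with inhibitor in 100 mM KPi pH 7.4. A mix of Amplex Red (200 μM) and H2O2 (10 mM) was then added and resorufin fluorescence read kinetically for 15 min. Slopes over 180–540 s gave % inhibition and IC50 via a four-parameter Hill fit.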

[2] = molecular target: T2, EPX (eosinophil peroxidase) (Homo sapiens, UniProt P11678); assay: EPX bromination assay; assay type: biochemical
T2 construct: purchased Lee Biosolutions 342-60
T2 sequence (P11678 140-715): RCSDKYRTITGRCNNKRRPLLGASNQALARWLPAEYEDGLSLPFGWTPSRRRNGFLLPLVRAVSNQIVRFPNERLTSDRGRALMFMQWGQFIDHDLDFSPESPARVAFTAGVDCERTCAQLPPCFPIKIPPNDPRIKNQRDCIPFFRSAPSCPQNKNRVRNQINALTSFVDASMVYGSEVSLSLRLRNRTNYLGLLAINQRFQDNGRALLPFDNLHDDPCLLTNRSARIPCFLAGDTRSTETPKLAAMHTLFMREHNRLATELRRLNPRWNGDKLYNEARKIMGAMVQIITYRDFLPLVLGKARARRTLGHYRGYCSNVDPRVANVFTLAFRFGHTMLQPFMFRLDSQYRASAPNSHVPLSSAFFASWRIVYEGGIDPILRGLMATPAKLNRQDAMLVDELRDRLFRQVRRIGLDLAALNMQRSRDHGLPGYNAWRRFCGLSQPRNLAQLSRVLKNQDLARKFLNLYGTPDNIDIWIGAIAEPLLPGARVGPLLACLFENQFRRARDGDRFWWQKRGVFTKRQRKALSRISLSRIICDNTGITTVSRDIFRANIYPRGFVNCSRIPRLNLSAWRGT
Procedure: [formula] where A=minimal Y value (activity level of inhibited sample), B=maximal Y value (activity level of uninhibited sample), C=Log IC50, D=Hill Slope, x=concentration of inhibitor. EPX Bromination Assay
EPX bromination activity was measured in 100 mM KPi (pH 7.4) by monitoring the H2O2 catalyzed formation of 3-bromo tyrosine from tyrosine and potassium bromide. A 50 μl mixture of 0.6 μM EPX (Lee Biosolutions Cat#342-60) was added to 100 nL inhibitor in 100% DMSO in a 384 well REMP plate. Enzyme and compound were preincubated for ten minutes at room temperature.
After the ten minute preincubation of enzyme and inhibitor, 25 μL of a mixture containing 400 μM tyrosine and 1200 μM potassium bromide was added to the plate containing enzyme and inhibitor, followed by the addition of 25 μl of 20 μM H2O2. The reaction was allowed to proceed for 15 minutes, at which time it was quenched with 10 μL of 20% TCA. The final concentrations of all components were 0.3 μM EPX, 100 μM tyrosine, […], 5 μM H2O2, 0.1% DMSO, 2.0% TCA.
IC50 values were determined by determining the peak areas of 3-bromotyrosine present at the end of the 15 minute reaction and fitting the data to:
[formula] where A=minimal Y value (activity level of inhibited sample), B=maximal Y value (activity level of uninhibited sample), C=Log IC50, D=Hill Slope, x=concentration of inhibitor.
Reversed-phase analysis was performed on a Waters Acquity Ultra Performance LC system using an Acquity UPLC BEH C18 […], 2.1×50 mm analytical column. The column was maintained at 60° C. Samples were eluted using a gradient of 0%-100% B over 2.5 minutes, followed by equilibration with 100% A for 1 minute where A consisted of 0.1% TFA and B consisted of 90% MeOH/0.1% TFA at a flow rate of 0.6 mL/min. The retention time of 3-bromo tyrosine was 1.22 min.

Row | Compound | IC50 [1] [nM] | IC50 [2] [nM]
1 | Nc1cc(OCc2cccc(OCc3ccccc3)c2)c2nn[nH]c2n1 [Example 2, 7-(3-(Benzyloxy)benzyloxy)-3H-[1,2,3]triazolo[4,5-b]pyridin-5-amine] | 1 to 100 | 80
2 | Nc1cc(OCc2cccc(OC3CC3)c2)c2nn[nH]c2n1 [Example 6, 7-(3-Cyclopropoxybenzyloxy)-3H-[1,2,3]triazolo[4,5-b]pyridin-5-amine] | 1 to 100 | 10
3 | Nc1cc(OCc2cccc(-c3ncccn3)c2)c2nn[nH]c2n1 [Example 8, 7-(3-(Pyrimidin-2-yl)benzyloxy)-3H-[1,2,3]triazolo[4,5-b]pyridin-5-amine] | 1 to 100 | 40
4 | Nc1cc(OCc2c(F)cccc2F)c2nn[nH]c2n1 [Example 54, 7-(2,6-Difluorobenzyloxy)-3H-[1,2,3]triazolo[4,5-b]pyridin-5-amine] | 1 to 100 | 10

Reference: patent US10316035B2, “Triazolopyridine inhibitors of myeloperoxidase” (BRISTOL-MYERS SQUIBB COMPANY, priority 2015, dated 2019)
